According to paper PMC10136548, “Evaluation of 3D Human Intestinal Organoids as a Platform for EV-A71 Antiviral Drug Discovery” (Cells, 2023):

Key:
EV-A71 BrCr strain [1] = assay: Viral RNA yield (RT-qPCR) in EV-A71-infected HIOs; assay type: cell-based, Enterovirus A71; conditions: for Selectivity Index (SI) = CC50/EC50: EC50 from RNA yield; for EC50: Enterovirus A, EVA71, EV-A71 MOI 0.1, 72 h, RT-qPCR, read-out: EC50 based on RNA yield
Experimental: (§1) EV-A71 BrCr strain, a gift from Prof. F. van Kuppeveld (University of Utrecht, Utrecht, The Netherlands), was propagated in RD cells, cultured in 2% FBS-DMEM at 37 °C under 5% CO2. […] EV-A71 stock titer was determined by the 50% tissue culture infective dose (TCID50) assay (Reed and Muench, 1938).
(§2) For infection, HIOs were mechanically fragmented by vigorously pipetting using a P1000 to expose the apical surface to the virus inoculum as previously described. After virus inoculation (MOI = 0.01, 0.1, or 1) with EV-A71 or mock infection, the mixture was then incubated for 2 h at 37 °C for virus adsorption. After washing, the infected HIO fragments were mixed with 20% Matrigel-organoid growth medium and seeded at 10,000 cells/well in a 96-well plate pre-coated with 20% Matrigel-organoid growth medium at 50 µL/well.
(§3) RNA was extracted from harvested samples using RNeasy Plus Mini Kit (Qiagen, Hilden, Germany). cDNA was created from the isolated RNA using High-Capacity cDNA Reverse Transcription Kit (ThermoFisher Scientific, Waltham, MA, USA) according to the manufacturer’s instructions.
(§4) For EV-A71 replication quantification, each 10 µL reaction mixture contained: 5 µL of Master Mix, 1.5 µL of RNase-free water, 0.5 µL each of gene-specific forward and reverse primer, and 3 µL of cDNA as template. The reaction plate was loaded in a LightCycler® 480 Real-Time PCR System (Roche) and ran at 95 °C for 3 min for pre-incubation, followed by 40 amplification cycles of 95 °C for 15 s and 60 °C for 60 s. Signal detection and measurements were taken in each amplification cycle. The EV-A71 viral loads in the samples were detected with the PanEV primer using a previously described customized primers probe mix (Integrated DNA Technologies, Coralville, IA, USA). The viral gene copy number was determined by absolute quantification and making a standard curve using custom gBlocks™ Gene Fragments (Integrated DNA Technologies) (5′-[…]-3′).
(§5) Figure 4 Comparison of antiviral activity determined by CPE inhibition and viral RNA yield between HIOs and RD cells. (A) Viability of HIOs and RD cells was measured, using Cell Titer-Glo 3D or Cell Titer-Glo, after 72 h of EV-A71 infection at MOI 0.1 and incubation with compounds at indicated concentrations. CPE inhibition is calculated based on percentage of mock-infected control. The half maximal effective concentration (EC50) was calculated using Prism nonlinear regression (GraphPad Prism 9). (B) For viral RNA yield, HIOs and RD cells were infected with EV-A71 at an MOI of 0.1 and treated with compounds at indicated concentrations for 72 h before total culture of HIOs or supernatant of cells were collected by combining triplicates and determined by RT-qPCR. Viral RNA yield is calculated based on percentage of mock-infected control. The EC50 was calculated using Prism nonlinear regression (GraphPad Prism 9). (C) Brightfield images of mock control, infection treated with 1.25 µM rupintrivir, and infected control HIOs and RD cells at 72 hpi. All images were acquired using the same objective. Scale bar, […]. (D) Images represent mock-, EV-A71-infected HIOs (0.1 MOI), and EV-A71-infected HIOs (0.1 MOI) treated with rupintrivir (10 µM) at 48 hpi: DAPI (blue) for nucleus, phalloidin (red) for F-actin, and dsRNA (green). Scale bar, […]. Data are the mean ± SEM of at least six independent experiments; each carried out in triplicate.

[2] = Cytotoxicity (Cell Titer-Glo viability) in non-infected RD cells; assay type: cell-based; conditions: human, non-infected RD cells (ATCC CCL-136); for CC50 at 72 h: non-infected RD cells, compounds 0.5–100 μM
Experimental: RD cells (ATCC, CCL-136, Manassas, VA, USA) were maintained in Dulbecco’s modified Eagle’s medium (DMEM) (Gibco, Thermo Fisher Scientific, Waltham, MA, USA) supplemented with 10% fetal bovine serum (FBS) (Gibco), 1% L-glutamine (Gibco), 1% sodium bicarbonate (Gibco), and 1% penicillin-streptomycin (Gibco). The cell culture was incubated at 37 °C under 5% CO2.
(§6) Viability of HIOs and RD cells were determined by Cell Titer-Glo® 3D Cell Viability Assay (Promega, Fitchburg, WI, USA) and Cell Titer-Glo® Luminescent Cell Viability Assay (Promega), respectively. According to the manufacturer’s instructions, in a white 96-well plate (Greiner Bio-One, Stonehouse, UK), a 1:1 ratio of reagent and spent culture medium was added to the wells and mixed, and the luminescence signal was measured by CLARIO star plus (B M G Labtech Ltd., Aylesbury, UK).
(§7) For determination of compounds’ half maximal cytotoxic concentration (CC50), the non-infected HIOs/cells were treated with compounds (0.5–100 μM) for 72 h. The viability % was calculated as follows: (luminescence reading compound treated)/(luminescence reading DMSO control) × 100. The CC50 was calculated using non-linear regression (curve fit) with GraphPad Prism 9 (GraphPad, La Jolla, CA, USA). For determination of compounds half maximal effective concentration (EC50), the infected HIOs/cells were treated with DMSO (i.e., 0 µM) or compounds (0.15–40 μM) for 72 h. The CPE inhibition % was calculated as follows: (luminescence reading compound treated)/(luminescence reading DMSO control) × 100. The EC50 was calculated using non-linear regression (curve fit) with GraphPad Prism 9 (GraphPad).

EV-A71 BrCr strain [3] = assay: Viral RNA yield (RT-qPCR) in EV-A71-infected RD cells; assay type: cell-based, Enterovirus A71; conditions: for Selectivity Index (SI) = CC50/EC50: EC50 from RNA yield; for EC50: Enterovirus A, EVA71, EV-A71 MOI 0.1, 72 h, RT-qPCR, read-out: EC50 based on RNA yield
Experimental: as §1
(§8) For RD cell line infection, 20,000 cells/well were cultured in 96-well plate at 37 °C for 24 h. To prepare virus inoculum (MOI = 0.01, 0.1, or 1), EV-A71 was diluted in 2% FBS-DMEM. Medium on cell monolayer was removed, and the inoculum was added for 1 h at 37 °C for virus adsorption. After washing, the monolayer was cultured in DMEM supplemented with 2% FBS.
as §3, §4, §5

EV-A71 BrCr strain [4] = assay: CPE inhibition in EV-A71-infected RD cells; assay type: cell-based, Enterovirus A71; conditions: for Selectivity Index (SI) = CC50/EC50: EC50 from CPE inhibition; for EC50: Enterovirus A, EVA71, EV-A71 MOI 0.1, 72 h, read-out: EC50 based on CPE inhibition; for EV-A71-induced CPE upon visual inspection: 1.25 μM, 72 hpi
Experimental: as §1, §8, §6
as §7, with “For determination of compounds half maximal effective concentration (EC50), the infected HIOs/cells were treated with DMSO (i.e., 0 µM) or compounds (0.15–40 μM) for 72 h.” left out
as §5

[5] = Cytotoxicity (Cell Titer-Glo 3D viability) in non-infected HIOs; assay type: cell-based; conditions: human; for CC50 at 72 h: non-infected HIOs, compounds 0.5–100 μM
Experimental: HiPSCs were cultured in colonies on Matrigel (Corning Inc., Corning, NY, USA) in mTeSR1 medium (STEMCELL Technologies, Vancouver, BC, Canada). HIOs were differentiated from the hiPSC line using STEMdiff™ Intestinal Organoid Kit (STEMCELL Technologies) following the manufacturer’s instructions. Briefly, hiPSCs were plated and differentiated towards definitive endoderm (day 3), and then to mid-/hindgut cells (day 5–9 post seeding). The spheroids generated during the mid-/hindgut stage were embedded in Matrigel and grown in intestinal growth media for further differentiation and expansion into intestinal organoids (30–45 days post hiPSCs seeding). After maturation and for long-term culture, HIOs were passaged twice a week, and medium was changed if needed every two days.
as §6, §7

EV-A71 BrCr strain [6] = assay: CPE inhibition in EV-A71-infected HIOs; assay type: cell-based, Enterovirus A71; conditions: for Selectivity Index (SI) = CC50/EC50: EC50 from CPE inhibition; for EC50: Enterovirus A, EVA71, EV-A71 MOI 0.1, 72 h, read-out: EC50 based on CPE inhibition; for EV-A71-induced CPE upon visual inspection: 1.25 μM, 72 hpi
Experimental: as §1, §2, §6
as §7, with “For determination of compounds half maximal effective concentration (EC50), the infected HIOs/cells were treated with DMSO (i.e., 0 µM) or compounds (0.15–40 μM) for 72 h.” left out
as §5

human rhinovirus (HRV) = tested on: human rhinovirus (HRV); set-up: method as in PMID 6113314, PMID 2984980; conditions: cited from earlier work
HRV = tested on: HRV; set-up: method as in PMID 14638501; conditions: human; cited from earlier work
HCV = tested on: HCV; set-up: method as in PMID 29534607, PMID 20006612, PMID 19426125; conditions: human, HCV infection, after 8 to 12 weeks of treatment; cited from earlier work
enteroids = conditions: cited from earlier work

Row | EC50 (EV-A71 BrCr strain [1]) | EC50 (EV-A71 BrCr strain [3]) | EC50 (EV-A71 BrCr strain [4]) | EC50 (EV-A71 BrCr strain [6]) | Structure (SMILES) | Selectivity Index (SI) = CC50/EC50 (EV-A71 BrCr strain [1]) | CC50 at 72 h [2] | Selectivity Index (SI) = CC50/EC50 (EV-A71 BrCr strain [3]) | Selectivity Index (SI) = CC50/EC50 (EV-A71 BrCr strain [4]) | CC50 at 72 h [5] | Selectivity Index (SI) = CC50/EC50 (EV-A71 BrCr strain [6]) | EV-A71-induced CPE upon visual inspection (EV-A71 BrCr strain [4]) | EV-A71-induced CPE upon visual inspection (EV-A71 BrCr strain [6]) | other results
1 | 1.5 ± 0.3 µM | 2 ± 0.4 µM | 1.3 ± 0.04 µM | 1 ± 0.3 µM | C[C@@]1(O)[C@H](O)[C@@H](CO)O[C@H]1n1ccc(N)nc1=O [2′CMC, 2′-C-methylcytidine] | 32 | > 100 µM | >50 | >76 | 48 ± 1 µM | 48 |  |  | protection from virus-induced CPE (EV-A71 BrCr strain [4]): complete protection; reduction of virus-induced CPE (maximum) (EV-A71 BrCr strain [6]; ATP-based viability assay, plateau from 2.5 μM to 20 μM): up to 66 ± 17%
2 | 1.4 ± 0.3 µM | 0.2 ± 0.04 µM | 0.06 ± 0.001 µM | 0.4 ± 0.2 µM | CC(C)S(=O)(=O)n1c(N)nc2ccc(/C(=N/O)c3ccccc3)cc21 [Enviroxime, enviroxime] | 17 | 28 ± 2 µM | 140 | 467 | 24 ± 7 µM | 60 | reduced | reduced | side effects in clinical studies (human rhinovirus (HRV); HRV infection): gastrointestinal side effects; clinical effects against infection (human rhinovirus (HRV)): no significant clinical effects; viability at 72 h, 100 µM ([2]; RD cells, highest tested concentration 100 μM): 20%; viability at 72 h, 100 µM ([5]; HIOs, 100 µM): 0%
3 |  |  |  |  | CC(C)[C@H](N)C(=O)O[C@@H]1[C@@H](CO)O[C@@H](n2ccc(N)nc2=O)[C@]1(C)O [Valopicitabine] |  |  |  |  |  |  |  |  | side effects during clinical study (HCV): gastrointestinal side effects
4 |  |  |  |  | CCC(C)n1ncn(-c2ccc(N3CCN(c4ccc(OCC5COC(Cn6cncn6)(c6ccc(Cl)cc6Cl)O5)cc4)CC3)cc2)c1=O (stereo not shown) [itraconazole] |  |  |  |  |  |  |  |  | cytotoxicity in enteroids compared to cell lines (enteroids): enhanced cytotoxicity

Row | Structure (SMILES) | EC50 (EV-A71 BrCr strain [1]) | EC50 (EV-A71 BrCr strain [3]) | EC50 (EV-A71 BrCr strain [4]) | EC50 (EV-A71 BrCr strain [6]) | Selectivity Index (SI) = CC50/EC50 (EV-A71 BrCr strain [1]) | CC50 at 72 h [2] | Selectivity Index (SI) = CC50/EC50 (EV-A71 BrCr strain [3]) | Selectivity Index (SI) = CC50/EC50 (EV-A71 BrCr strain [4]) | CC50 at 72 h [5] | Selectivity Index (SI) = CC50/EC50 (EV-A71 BrCr strain [6]) | EV-A71-induced CPE upon visual inspection (EV-A71 BrCr strain [4]) | EV-A71-induced CPE upon visual inspection (EV-A71 BrCr strain [6]) | other results
5 | CCOC(=O)/C=C/[C@H](C[C@@H]1CCNC1=O)NC(=O)[C@@H](CC(=O)[C@@H](NC(=O)c1cc(C)on1)C(C)C)Cc1ccc(F)cc1 [Rupintrivir, rupintrivir] | 1.7 ± 0.4 µM | < 0.035 µM | < 0.035 µM | < 0.15 µM | >59 | > 100 µM | >2857 | >2857 | > 100 µM | >667 | reduced | reduced | viral RNA levels (EV-A71 BrCr strain [3]; at all tested concentrations, MOI 0.1, 72 h): 10 ± 3%; adverse side effects or treatment effects in phase II clinical studies (HRV): no adverse side effects or treatment effects; protection from EV-A71-induced CPE (EV-A71 BrCr strain [4]; lowest concentration tested 0.035 μM): full protection; protection from EV-A71-induced CPE (EV-A71 BrCr strain [6]; lowest concentration tested 0.15 μM): full protection
